Laboratory results from patent US9925176B2, “Sodium channel blocker delivery system with scleral lens” (Boston Foundation for Sight, priority 2009, dated 2018).

Assays:
[1] = test system: cornea; details: proparacaine 0.05%, after photorefractive keratectomy, Shahinian et al.; cited from earlier work
[2] = test system: corneal sensitivity; assay: Corneal sensitivity by Cochet-Bonnet aesthesiometry; assay type: in vivo, human
Description: The sub-hypoesthetic dose for a sodium channel blocker or a sodium channel modulator may vary between patients. […] The sub-hypoesthetic dose of a sodium channel blocker or a sodium channel modulator can be determined for an individual patient by selecting a higher starting concentration and gradually reducing the concentration via titration until reaching a sub-hypoesthetic dose as determined by a contact and non-contact esthesiometer. A non-limiting example of a method of determining corneal sensitivity is Cochet-Bonnet aesthesiometry.
As used herein, the phrases “sub-anesthetic dose” and “sub-anesthetic concentration” refer to a dose of a sodium channel blocker or a sodium channel modulator or a sodium channel modulator that is lower than the anesthetic dose. “Sub-anesthetic dose” and “sub-anesthetic concentration” may be used interchangeably. The sub-anesthetic dose of a sodium channel blocker or a sodium channel modulator may vary between patients. The sub-anesthetic dose of a sodium channel blocker or a sodium channel modulator can be determined for an individual patient by selecting a higher starting concentration and gradually reducing the concentration via titration until reaching a sub-anesthetic dose as determined by a contact and non-contact esthesiometer. A non-limiting example of a starting concentration of a sodium channel blocker or a sodium channel modulator is about 0.02%. In some embodiments, the concentration of the sodium channel blocker or a sodium channel modulator may be titrated down to a concentration that avoids any depression of corneal sensitivity. A non-limiting example of a method of determining corneal sensitivity is Cochet-Bonnet aesthesiometry.
A patient with well-established primary Sjögren's syndrome and severe dry eyes was treated for intense, constant corneal pain using the anesthetic delivery system disclosed herein. Specifically, the patient was treated with bupivacaine and BOS-P devices. The concentration of non-preserved bupivacaine was rapidly titrated using frequent (every 2-5 minutes) drops in the more symptomatic left eye (open label) measuring corneal sensitivity with a Cochet-Bonnet aesthesiometer (with adequate recovery times) until reaching the concentration that avoided any depression of corneal sensitivity. The sub-anesthetic concentration in this patient was determined to be 0.001%. […] The patient then left.

[3] = test system: corneas; assay: Ocular safety examination (fluorescein staining, slit lamp, confocal microscopy); assay type: in vivo, human
Description: (§1) They wore the BOS-P containing 0.001% bupivacaine in their left eye, and the BOS-P containing saline in their right eye unmasked to the patient and doctor, for about 8 hours. […] Corneal sensation in the treated eye was normal.
The patient returned the following day 2 hours after inserting the scleral lenses containing 0.015% ropivacaine.
A patient suffered from severe corneal neuropathic pain for many years, greatly limiting the patient's quality of life. This disease was refractory to previous treatments. Lacosamide was placed in the fluid reservoir of the device where it remained in contact with the cornea while it was worn (approximately 10 hours/day).

[4] = test system: corneal neuropathic pain; assay: Treatment of corneal pain with drug solution in the fluid reservoir of a scleral lens (BOS-P); assay type: in vivo, human
Description: A patient with well-established primary Sjögren's syndrome and severe dry eyes was treated for intense, constant corneal pain using the anesthetic delivery system disclosed herein. Specifically, the patient was treated with bupivacaine and BOS-P devices. The concentration of non-preserved bupivacaine was rapidly titrated using frequent (every 2-5 minutes) drops in the more symptomatic left eye (open label) measuring corneal sensitivity with a Cochet-Bonnet aesthesiometer (with adequate recovery times) until reaching the concentration that avoided any depression of corneal sensitivity. The sub-anesthetic concentration in this patient was determined to be 0.001%. Both BOS-P devices were filled with 0.001% bupivacaine and inserted into the patient's eyes. The patient then left.
The patient was given a vial of 0.01% bupivacaine to dilute 1:10 (e.g., add one drop of 0.01% bupivacaine to nine drops of saline) to fill the reservoir of the left lens prior to inserting it the next morning.
as §1
The fluid compartments of both BOS-P lenses were filled with non-preserved bupivacaine at a concentration of 0.002%, and the BOS-P lenses with bupivacaine were worn at least 12 hours/day. […] Eye symptoms were also resolved after the bupivacaine was diluted to 0.0014%.
A patient suffered from Stevens-Johnson syndrome for about 25 years, complicated by scarring of the lids and corneas of both eyes. The patient was fitted with scleral lens with marked mitigation of eye pain for 2 years following which the patient experienced increasingly disabling eye pain and photosensitivity that was refractory to all available treatments and required high daily doses of opioids to control. Three drops of ropivacaine 0.04% were mixed with 5 drops of saline in the reservoirs of both of the patient's scleral lenses, yielding a solution of 0.015% ropivacaine.
The patient returned the following day 2 hours after inserting the scleral lenses containing 0.015% ropivacaine. […]
A patient underwent a bone marrow stem cell transplant for leukemia and subsequently developed severe dry eyes secondary to chronic graft versus host disease. They were fitted with a scleral lens that eliminated the severe burning pain in their right eye but continued to experienced knife-like and severe aching pain in their left eye and disabling photosensitivity while wearing the scleral lens. This persisted for 15 months. All eye and co-morbid pain symptoms disappeared when the lens was worn with its fluid reservoir filled with sterile, non-preserved lacosamide 0.05%.

[5] = test system: corneal neuropathic pain; assay: Lacosamide eye drops without scleral lens for corneal neuropathic pain; assay type: in vivo, human; details: Example 5, eye drops with 0.5% lacosamide
Description: Eye drops containing 0.5% lacosamide were administered to the eyes of two patients and to the an eye of the inventor. […] Therefore, it is believed that lacosamide may be used in eye drops at a concentration of up to 5% to treat corneal neuropathic pain without depressing corneal sensation.

[6] = Example 3, ropivacaine in scleral lenses, continued use

CCCOc1ccc(C(=O)OCCN(CC)CC)cc1N [Proparacaine]
anesthetic effect [1]: non-anesthetic | toxicity and safety [1]: non-toxic, and safe for at least one week of use

CCCCN1CCCCC1C(=O)Nc1c(C)cccc1C (stereo not shown) [bupivacaine]
corneal sensitivity during wear ([2]; Example 1, 0.001% bupivacaine in left lens, verified periodically during the day): absence of depressed corneal sensitivity | corneal sensation in the treated eye ([2]; Example 1, after about 8 hours of BOS-P with 0.001% bupivacaine): normal | corneal sensation ([2]; Example 2, 0.002% bupivacaine in BOS-P, several weeks): remained intact | fluorescein staining ([3]; in vivo): no significant fluorescein staining | eye comfort reported by patient ([4]; Example 1, both BOS-P filled with 0.001% bupivacaine, next day): both eyes felt more comfortable than they had been in 3 months | pain reported at day's end ([4]; Example 1, second day, left lens reservoir filled with non-preserved bupivacaine): virtual absence of pain in either eye | pain after exposure to glass cleaner or white board marker ([4]; Example 1, second day, triggers that ordinarily cause severe pain): little or no pain | pain reported after about 8 hours of wear ([4]; Example 1, third day, BOS-P with 0.001% bupivacaine in left eye, saline in right eye): virtually no pain in either eye | pain with the Visual Analog Scale ([4]; Example 1, third day, on arrival): virtually no pain in either eye | eye symptoms ([4]; Example 2, bupivacaine diluted to 0.0014%): resolved | eye symptoms (photosensitivity, burning pain, inability to read) ([4]; Example 2, post cosmetic lid surgery, 0.002% bupivacaine in both BOS-P, at least 12 hours/day, several weeks): resolved

COC[C@@H](NC(C)=O)C(=O)NCc1ccccc1 [lacosamide]
duration of effect, one patient [5]: over four | duration of effect, other patient [5]: over two | onset of pain resolution [5]: almost immediately after administration | corneal neuropathic pain ([5]; both patients): complete resolution | corneal sensation ([2]; Example 5, eye drops with 0.5% lacosamide, two patients and the inventor): did not depress corneal sensation | detrimental effects to the corneas ([3]; Example 4, 0.003% lacosamide in BOS-P, slit lamp examination and confocal microscopy): without any detrimental effects | eye and co-morbid pain symptoms ([4]; Example 6, chronic graft versus host disease dry eye, scleral lens reservoir filled with lacosamide 0.05%): disappeared

CCCN1CCCC[C@H]1C(=O)Nc1c(C)cccc1C [ropivacaine]
corneal sensitivity ([2]; Example 3, 0.015% ropivacaine, following day): normal | corneal sensitivities at subsequent examinations [2, 6]: normal | adverse effects from the treatment ([3]; in vivo): no adverse effects | treatment-related complications at subsequent examinations ([3]; in vivo): without adverse treatment-related complications | eye pain and photophobia, lenses worn until midnight ([4]; Example 3, 0.015% ropivacaine, first day): total resolution | eye pain and photosensitivity following application ([4]; Example 3, Stevens-Johnson syndrome, 0.015% ropivacaine in both scleral lenses): rapid mitigation | symptoms at the time of examination ([4]; Example 3, following day, 2 hours after inserting lenses with 0.015% ropivacaine): free of symptoms | eye pain and photophobia at subsequent examinations [4, 6]: significant mitigation
